According to US9663486B2, “Selectively substituted quinoline compounds” (EISAI R&D MANAGEMENT CO., LTD., priority 2013, dated 2017):

Tested on: Human TLR7/8
Assay: Human PBMC cell-based assay, TLR7/8 (RNA-Ig), cytokine ELISA
Conditions: PBMC assay data summary; ligand and analyte not given; read-out: Human PBMCs IC50
Procedure: Human peripheral blood mononuclear cells (PBMC) were isolated from freshly-drawn heparinized (10 USP units/ml, Hospira, Lakeforest, Ill.) healthy donor whole blood by density gradient (Histopaque® 1077, Sigma, Inc., St. Louis, Mo.). Briefly, 25 ml blood was diluted with 15 ml PBS (without Ca^2+, Mg^2+) in a 50 ml conical tube, and 12 ml Histopaque was underlaid using a spinal needle. Tubes were centrifuged for 45 minutes at 1200 rpm (350×g), and PBMC were collected from the buffy coat. Cells were then washed twice in PBS, and red blood cells were lysed by suspension in 5 ml ammonium chloride solution (1× Red Blood Cell Lysis Buffer, eBioscience) for 5 minutes at room temperature. After a final wash in PBS, PBMC were resuspended at a final concentration of 2×10^6/ml in RPMI-1640 media with L-glutamine (Invitrogen) and supplemented with 25 mM HEPES (Mediatech, Inc, Manassas Va.), 10% fetal bovine serum (HyClone, Logan, Utah), and Penicillin-Streptomycin-Glutamine (Mediatech) and plated at 100 ul/well (2×10^5 cells/well) in tissue culture treated 96-well plates (Falcon).
Antagonist compounds solubilized and serial diluted in 100% DMSO were added in triplicate to cells to yield a final concentration of 0.1% DMSO (v/v). Hydroxychloroquine (Acros Organics) solubilized and serial diluted in PBS was added in triplicate to cells. PBMC were incubated with antagonist compounds or HCQ for 30 minutes at 37° C., 5% CO2 before adding various TLR agonist reagents in 100 ul complete media per well as follows (final concentrations indicated): R848 (Resiquimod; GLSynthesis, Worcester, Mass.) at 1 uM for TLR7 and TLR8, Pam3CSK4 (InvivoGen) at 50 ng/ml for TLR1/2, LPS (Sigma) at 10 ng/ml for TLR4, and CpG-2216 (InvivoGen) at 5 ug/ml for TLR9. […] The resulting “RNA-Ig” stimulus was incubated at room temperature for 15-30 minutes before adding to cells. PBMC were incubated with the various TLR agonists for 20 hours at 37° C., 5% CO2. Cell culture supernatants were collected, and levels of various human cytokines were assessed as indicated by standard ELISA procedure according to the manufacturer's recommended protocol (BD Biosciences, Inc., San Diego, Calif.).

Question: `COCCNC1CC(C)CN(c2ccc(C#N)c3ncccc23)C1` (stereo not drawn) [ER-897275] was tested. Which IC50 did it give?
Answer: The IC50 was 6 nM.

Question: Which IC50 does the source give for `CCOC(=O)CNC1CC(C)CN(c2ccc(C#N)c3ncccc23)C1` (stereo not drawn) [ER-899504] here?
Answer: The IC50 was 81 nM.

Question: With `CC1CC(NC(=O)c2cccc(O)c2)CN(c2ccc(C#N)c3ncccc23)C1` (stereo not drawn) [ER-897973] as the compound, how does the IC50 read?
Answer: Its IC50 is 11 nM.

Question: How did the IC50 turn out when `CC(C)CC(N)C(=O)NC1CC(C)CN(c2ccc(C#N)c3ncccc23)C1` (stereo not drawn) [ER-897998] was run?
Answer: Its IC50 is 2 nM.

Question: `CC1CC(NC(=O)C(O)C(C)C)CN(c2ccc(C#N)c3ncccc23)C1` (stereo not drawn) [ER-897972] was tested. Which IC50 did it give?
Answer: Its IC50 is 17 nM.

Question: How did the IC50 turn out when `C[C@H]1C[C@@H](NCc2ncco2)CN(c2ccc(C#N)c3ncccc23)C1` [ER-899551] was run?
Answer: The IC50 was 24 nM.

Question: `CC1CC(O)CN(c2ccc(C#N)c3ncccc23)C1` (stereo not drawn) [ER-896464] was tested. Which IC50 did it give?
Answer: The IC50 was 6 nM.

Question: For `CC(C)CC(N)C(=O)NC1CC(C)CN(c2ccc(C#N)c3ncccc23)C1` (stereo not drawn) [ER-897999], which IC50 is on record?
Answer: Its IC50 is 2 nM.

Question: With `CN[C@@H]1C[C@H](C)CN(c2ccc(C#N)c3ncccc23)C1` [ER-897184] as the compound, how does the IC50 read?
Answer: Its IC50 is 4 nM.

Question: Which IC50 does the source give for `CC1CC(NC(=O)CS(C)(=O)=O)CN(c2ccc(C#N)c3ncccc23)C1` (stereo not drawn) [ER-897978] here?
Answer: Its IC50 is 14 nM.

Question: With `CC1CC(NC(=O)C(N)Cc2cccnc2)CN(c2ccc(C#N)c3ncccc23)C1` (stereo not drawn) [ER-898360] as the compound, how does the IC50 read?
Answer: The IC50 was 11 nM.

Question: `CC1CC(NC(=O)C(N)c2ccccc2)CN(c2ccc(C#N)c3ncccc23)C1` (stereo not drawn) [ER-898350] was tested. Which IC50 did it give?
Answer: The IC50 was 20 nM.

Question: `COCC(N)C(=O)NC1CC(C)CN(c2ccc(C#N)c3ncccc23)C1` (stereo not drawn) [ER-897990] was tested. Which IC50 did it give?
Answer: The IC50 was 3 nM.

Question: With `C[C@H]1C[C@@H](N(C)C)CN(c2ccc(C#N)c3ncccc23)C1` [ER-889591] as the compound, how does the IC50 read?
Answer: The IC50 was 42 nM.

Question: How did the IC50 turn out when `CC1CC(NC(=O)C(N)C(C)C)CN(c2ccc(C#N)c3ncccc23)C1` (stereo not drawn) [ER-897987] was run?
Answer: The IC50 was 12 nM.

Question: For `C[C@H]1C[C@@H](NCc2cn(C)cn2)CN(c2ccc(C#N)c3ncccc23)C1` [ER-899552], which IC50 is on record?
Answer: Its IC50 is 104 nM.

Question: For `CC1CC(NC(=O)CO)CN(c2ccc(C#N)c3ncccc23)C1` (stereo not drawn) [ER-897971], which IC50 is on record?
Answer: Its IC50 is 5 nM.

Question: Which IC50 does the source give for `CC1(C)C[C@@H](N)CN(c2ccc(C#N)c3ncccc23)C1` [ER-895386] here?
Answer: Its IC50 is 17 nM.

Question: For `CC1CC(NC(=O)CN)CN(c2ccc(C#N)c3ncccc23)C1` (stereo not drawn) [ER-897274], which IC50 is on record?
Answer: The IC50 was 7 nM.

Question: For `CCOC(=O)CN(CC(=O)OCC)C1CC(C)CN(c2ccc(C#N)c3ncccc23)C1` (stereo not drawn) [ER-899505], which IC50 is on record?
Answer: The IC50 was 127 nM.

Question: Which IC50 does the source give for `CC(=O)NC1CC(C)CN(c2ccc(C#N)c3ncccc23)C1` (stereo not drawn) [ER-896310] here?
Answer: The IC50 was 63 nM.

Question: For `C[C@H]1C[C@@H](NC(=O)C2(N)COC2)CN(c2ccc(C#N)c3ncccc23)C1` [ER-899350], which IC50 is on record?
Answer: Its IC50 is 67 nM.

Question: For `C[C@H]1C[C@@H](NS(=O)(=O)CCN)CN(c2ccc(C#N)c3ncccc23)C1` [ER-899669], which IC50 is on record?
Answer: Its IC50 is 9 nM.

Question: Which IC50 does the source give for `CNC(C(=O)NC1CC(C)CN(c2ccc(C#N)c3ncccc23)C1)C(C)C` (stereo not drawn) [ER-898334] here?
Answer: The IC50 was 8 nM.
